From patent US11466044B2 (WAYNE STATE UNIVERSITY, priority 2017, dated 2022)
≈ marks a conversion by molar mass, not a printed value. Like-named read-outs stand apart in the source and are kept apart here.

What was measured:
E coli wild type = assay: MIC by broth microdilution, wild type E coli; assay type: cell-based; settings: for MIC: Escherichia coli; for MIC E. coli WT: Table 5 (Example 3)
[1] = test system: Klebsiella pneumonia AG215; assay: MIC by broth microdilution, Klebsiella pneumonia; assay type: cell-based; settings: Klebsiella pneumoniae; strain AG215 Klebsiella pneumonia; read-out: MIC AG215 K. pneumon
P aeruginosa = assay: MIC by broth microdilution, P aeruginosa isolates; assay type: cell-based, Pseudomonas aeruginosa; settings: for MIC: strain AG220 Pseudomonas aeruginosa ATCC27853, read-out: MIC AG220 P. aerugin
[2] = test system: Enterobacter cloacae AG290; assay: MIC by broth microdilution, Enterobacter cloacae; assay type: cell-based; settings: strain AG290 Enterobacter cloacae; read-out: MIC AG290 E. cloacae
[3] = test system: Acinetobacter baumannii pittii AG225; assay: MIC by broth microdilution, Acinetobacter baumannii; assay type: cell-based; settings: strain AG225 Acinetobacter baumannii pittii
M. abscessus = assay: MIC by broth microdilution, M. abscessus; assay type: cell-based; settings: Table 5 (Example 3)
[4] = test system: E coli carrying specific resistance determinants; assay: MIC by broth microdilution, E coli carrying specific resistance determinants; assay type: cell-based; settings: Table 5 (Example 3)
M. smegmatis SZ380 = assay: MIC by broth microdilution, M. smegmatis; settings: for MIC M. smegmatis SZ380 WT: Table 5 (Example 3)
MRSA = assay: MIC by broth microdilution, MRSA isolates; assay type: cell-based; settings: Table 1 (Example 2)
[5] = test system: wild type bacterial ribosomes; assay: in-vitro translation assay, bacterial ribosomes; assay type: biochemical; settings: bacterial ribosome; Table 3 (Example 2); read-out: IC50 Bac
Source text: (§1) The antiribosomal activity of these compounds was investigated with cell-free translation assays using both wild type bacterial ribosomes and hybrid ribosomes carrying eukaryotic decoding A sites enabling the prediction of selectivity.

[6] = test system: cytosolic ribosome (human chimeric); assay type: biochemical; settings: cytosolic; Table 3 (Example 2); read-out: IC50 Cyt
Source text: as §1

[7] = test system: mitochondrial ribosome (human chimeric); assay type: biochemical; settings: mitochondrial; Table 3 (Example 2); read-out: IC50 Mit
Source text: as §1

[8] = ATCC25922, strain AG212 E. coli (ATCC25922), read-out: MIC AG212 E. coli

**Q.** For `NCC1O[C@H](O[C@@H]2C(O)[C@H](O[C@@H]3C(O)[C@H](N)CC(N)[C@H]3O[C@H]3OC(CO)[C@@H](CC(O)CO)C(O)[C@@H]3N)O[C@@H]2CO)C(N)C(O)[C@@H]1O` (stereo partly shown) [Compound 198], which MIC (E coli wild type; [8]) is on record?
**A.** Its MIC is 8 µg/mL (≈ 11.9 µM).

**Q.** And the MIC [1]?
**A.** The MIC was 2 to 4 µg/mL (≈ 2.97 to 5.94 µM).

**Q.** And the MIC (P aeruginosa)?
**A.** Its MIC is 16 µg/mL (≈ 23.7 µM).

**Q.** And the MIC [2]?
**A.** The MIC was 4 µg/mL (≈ 5.94 µM).

**Q.** What about the MIC [3] of the same compound?
**A.** Its MIC is 8 µg/mL (≈ 11.9 µM).

**Q.** `NCC[C@H](O)C(=O)N[C@@H]1C[C@H](N)[C@@H](O[C@H]2O[C@H](CN)[C@@H](O)[C@H](O)[C@H]2O)[C@H](O)[C@H]1O[C@H]1O[C@H](CO)[C@@H](O)[C@H](N)[C@H]1O` [AMK, reference compound] was tested. Which “MIC M. abscessus ATCC 19977 WT” value (M. abscessus) did it give?
**A.** Its value is 1 µg/mL (≈ 1.71 µM).

**Q.** And the “MIC M. abscessus clinical isolate” value (M. abscessus; clinical isolate)?
**A.** Its value is 2 µg/mL (≈ 3.42 µM).

**Q.** What about the “MIC M. abscessus engineered Δeis2” value (M. abscessus) of the same compound?
**A.** The value was 0.125 to 0.25 µg/mL.

**Q.** What about the “MIC E. coli AG106 AAC(2′)-Ia” value [4] of the same compound?
**A.** The value was 2 µg/mL (≈ 3.42 µM).

**Q.** What about the “MIC E. coli pGB2armA armA” value [4] of the same compound?
**A.** The value was greater than 128 μg/ml.

**Q.** And the “MIC E. coli pH434 AAC(2′)-Ib” value ([4]; pH434 AAC(2′)-Ib)?
**A.** Its value is 2 μg/ml.

**Q.** And the “MIC E. coli WT” value (E coli wild type; WT)?
**A.** Its value is 2 µg/mL (≈ 3.42 µM).

**Q.** And the “MIC M. smegmatis SZ380 WT” value (M. smegmatis SZ380)?
**A.** Its value is 0.5 µg/mL (≈ 0.854 µM).

**Q.** What does the source list for `CC1CC(N)C2O[C@H](O[C@@H]3C(N)C[C@@H](N)C(O)[C@H]3O[C@@H]3O[C@H](CO)[C@H](O[C@H]4O[C@@H](CN)[C@@H](O)C(O)C4N)C3O)C(N)[C@@H](O)[C@@H]2O1` (stereo partly drawn) [Compound 150, 4-O-(2′,6′-Diamino-4′,8′-anhydro-2′,6′,7′,9′-tetradeoxy-D-erythro-α-D-gluco-nonapyranosyl)-5-O-(β-paramobiosyl)-2-deoxystreptamine.6AcOH]?
**A.** MIC50 E coli BM13 (AG06) wt (E coli wild type; BM13 (AG06) wt, Table 2A (Example 2)): 64 to 128 µg/mL; MIC WT (E coli wild type; WT, Table 3 (Example 2)): 64 to 128 µg/mL; MIC50 E coli pH430 WT (E coli wild type; pH430 WT, Table 2B (Example 2)): 64-128 μg/ml; MIC50 E coli AG01 (E coli wild type; strain AG01, Table 1 (Example 2)): >128 µg/mL; MIC50 E coli AG03 (E coli wild type; strain AG03, Table 1 (Example 2)): >128 µg/mL; MIC50 E coli AG55 (E coli wild type; strain AG55, Table 1 (Example 2)): >128 µg/mL; MIC SZ380 M. smegmatis (M. smegmatis SZ380; strain SZ380 Mycobacterium smegmatis): 16 to 32 µg/mL; MIC50 P aeruginosa AG31 (P aeruginosa; strain AG31, Table 1 (Example 2)): >128 µg/mL; MIC50 P aeruginosa AG32 (P aeruginosa; strain AG32, Table 1 (Example 2)): >128 µg/mL; MIC50 P aeruginosa AG33 (P aeruginosa; strain AG33, Table 1 (Example 2)): >128 µg/mL; MIC50 P aeruginosa AG86 (P aeruginosa; strain AG86, Table 1 (Example 2)): >128 µg/mL; MIC50 MRSA AG38 (MRSA; strain AG38): 128 µg/mL (≈ 196 µM); MIC50 MRSA AG39 (MRSA; strain AG39): 128 µg/mL (≈ 196 µM); MIC50 MRSA AG42 (MRSA; strain AG42): 128 µg/mL (≈ 196 µM); MIC50 MRSA AG44 (MRSA; strain AG44): 128 µg/mL (≈ 196 µM); IC50 [5]: 0.48 µM; IC50 [6]: 12 µM; IC50 [7]: 4.1 µM

**Q.** Which MIC (E coli wild type; [8]) does the source give for `CCC(O)C1O[C@H](O[C@@H]2C(N)C[C@@H](N)C(O)[C@H]2O[C@@H]2O[C@H](CO)[C@H](O[C@H]3O[C@@H](CN)[C@@H](O)C(O)C3N)C2O)C(N)[C@@H](O)[C@@H]1O` (stereo partly shown) [Compound 192] here?
**A.** The MIC was 4 µg/mL (≈ 6.21 µM).

**Q.** And the MIC [1]?
**A.** The MIC was 2 µg/mL (≈ 3.11 µM).

**Q.** And the MIC (P aeruginosa)?
**A.** The MIC was greater than 64 µg/mL.

**Q.** What about the MIC [2] of the same compound?
**A.** Its MIC is 2 to 4 µg/mL (≈ 3.11 to 6.21 µM).

**Q.** And the MIC [3]?
**A.** Its MIC is 8 µg/mL (≈ 12.4 µM).

**Q.** How did the MIC (E coli wild type; [8]) turn out when `CCC[C@@H]1C(CNCCO)O[C@H](O[C@@H]2C(N)C[C@@H](N)C(O)[C@H]2O[C@@H]2O[C@H](CNCCO)[C@H](O[C@H]3OC(CN)[C@@H](O)C(O)C3N)C2O)[C@@H](N)C1O` (stereo partly shown) [Compound 193] was run?
**A.** The MIC was 4 µg/mL (≈ 5.5 µM).

**Q.** And the MIC [1]?
**A.** Its MIC is 2 µg/mL (≈ 2.75 µM).

**Q.** And the MIC (P aeruginosa)?
**A.** The MIC was greater than 64 µg/mL.

**Q.** What about the MIC [2] of the same compound?
**A.** The MIC was 2 µg/mL (≈ 2.75 µM).

**Q.** And the MIC [3]?
**A.** The MIC was 32 µg/mL (≈ 44 µM).

**Q.** How did the MIC (E coli wild type; [8]) turn out when `NC[C@@H]1O[C@H](O[C@@H]2C(O)[C@H](O[C@@H]3C(O)[C@H](N)CC(N)[C@H]3O[C@H]3OC4C(O)CCCO[C@H]4[C@H](O)C3N)O[C@@H]2CO)C(N)C(O)[C@@H]1O` (stereo partly shown) [Compound 199] was run?
**A.** The MIC was greater than 32 µg/mL.

**Q.** What about the MIC [1] of the same compound?
**A.** Its MIC is 32 µg/mL (≈ 48.8 µM).

**Q.** And the MIC (P aeruginosa)?
**A.** Its MIC is greater than 32 µg/mL.

**Q.** And the MIC [2]?
**A.** Its MIC is greater than 32 µg/mL.

**Q.** And the MIC [3]?
**A.** The MIC was greater than 32 µg/mL.

**Q.** What does the source list for gentamicin [reference compound]?
**A.** MIC M. abscessus ATCC 19977 WT (M. abscessus): 2 to 4 µg/mL; MIC M. abscessus engineered Δeis2 (M. abscessus): 2 µg/mL; MIC E. coli AG106 AAC(2′)-Ia [4]: 2 to 4 µg/mL; MIC E. coli pGB2armA armA [4]: >128 μg/ml; MIC E. coli WT (E coli wild type; WT): 0.5 µg/mL; MIC M. smegmatis SZ380 WT (M. smegmatis SZ380): 1 µg/mL

**Q.** How did the MIC (E coli wild type; ATCC25922, read-out: MIC AG212 E. coli, strain AG212 E. coli (ATCC25922)) turn out when `NCC1O[C@H](O[C@@H]2C(N)C[C@@H](N)C(O)[C@H]2O[C@@H]2O[C@H](CO)[C@H](F)C2O)[C@@H](N)C(O)[C@@H]1O` (stereo partly shown) [Compound 093] was run?
**A.** The MIC was 2 µg/mL (≈ 4.38 µM).

**Q.** What about the MIC (M. smegmatis SZ380; Mycolicibacterium smegmatis, SZ380, read-out: MIC SZ380 M. smegmatis, strain SZ380 Mycobacterium smegmatis) of the same compound?
**A.** Its MIC is 8 µg/mL (≈ 17.5 µM).

**Q.** What about the MIC [1] of the same compound?
**A.** Its MIC is 1 to 2 µg/mL (≈ 2.19 to 4.38 µM).

**Q.** And the MIC (P aeruginosa)?
**A.** Its MIC is greater than 64 µg/mL.

**Q.** What about the MIC [2] of the same compound?
**A.** The MIC was 2 µg/mL (≈ 4.38 µM).

**Q.** And the MIC [3]?
**A.** The MIC was 16 µg/mL (≈ 35.1 µM).
